From patent US20230101743A1, “SUBSTITUTED TRIAZINE COMPOUNDS AND USES THEREOF” (MUSC FOUNDATION FOR RESEARCH DEVELOPMENT, priority 2020, published 2023)

How the values were obtained:
[1] = system: total cholesterol levels within the medium; test: Total cholesterol quantification in culture medium of iPSC-derived hepatocytes; format: cell-based, human; details: 2 μg/mL, 24 hours; normalized with DMSO treated control
Method: B. Human iPSC-derived hepatocytes were treated with 2 μg/mL of DL-1 for 24 hours. Total cholesterol levels within the medium were determined and normalized with DMSO treated control. Data are shown as mean±SEM of six replicates (n=6); * ** P<0.001.
Cell Culture medium was harvested from human iPSC-derived hepatocytes (Day 20) before and after 24 hours of DL-1 (2 μg/mL) or vehicle treatment. Pre-drug and Post-drug medium were concentrated using Amico® Ultra 10K Centrifugal Filters (Sigma-Aldrich, #Z740171), and total cholesterol levels were determined using the colorimetric cholesterol assay kit (Sigma-Aldrich, #MAK043) following the manufactural instructions.

[2] = Solubilities in water and 1 x PBS buffer (UV-vis); format: physicochemical; details: 25° C.
Method: The molar extinction co-efficients of exemplary cholesterol lowering compounds were measured in 1 x PBS buffer. The compounds were first dissolved in dimethyl sulfoxide. Solutions with a 0.5 mg/ml concentration were then prepared in DMSO. These solutions were diluted further with 1 x PBS by 100-fold, resulting in solutions with a 5 ug/ml concentration. The resulted diluted solutions were then measured and scanned using a UV-vis spectrophotometer for ultra-violet absorbances between 240 nm to 400 nm, using a UV 96-well microplate. The maximum UV absorbances and corresponding wavelengths were recorded (Table 1). The absorbance values were subtracted by that of a blank, 1 x PBS buffer containing […]. The volume of the solutions for UV measurements was 300 ul and the depth of the solutions was 0.7 cm. The molar extinction co-efficients were then calculated based on formula
The solubilities of the exemplary cholesterol lowering compounds were measured in water and 1 x PBS buffer. The compounds were first stirred with water and 1 x PBS buffer individually at room temperature for 1 h. The suspensions were then centrifuged for 2 min. The top clear solutions were filtered through filter paper, resulting in mother liquids, which were centrifuged again and diluted with 1 x PBS buffer for 10-fold for the solubilities in water and 100-fold the solubilities in 1 x PBS buffer. The resulted solutions were measured using a UV-vis spectrophotometer for UV absorbances with the maximum absorbances. The values were subtracted by that of a blank, 1 x PBS buffer. The corrected absorbances were then used to calculate the corresponding concentrations using the formula (1) and extinction coefficients (Table 1) shown above. The individual concentrations were then used to calculate the solubilities in 1.0 mL of water and 1 x PBS buffer.
The compounds were dissolved in DMSO to either 50 mg/ml, 10 mg/ml or 5 mg/ml solutions, which were diluted to 0.5 mg/ml with DMSO. These solutions were then diluted to 5 ug/ml with 1 x PBS buffer. The resulted solutions were then measured in a UV-vis spectrophotometer for UV scanning from 240 nm to 400 nm at 25° C. The absorbance values were subtracted by that of a blank, 1 x PBS buffer containing DMSO. The total volume of the solutions was 300 uL and the path length for each well was 0.7 cm in a UV 96-well plate. The extinction coefficients of the compounds were then calculated based on molar concentrations and the corrected UV absorbances at the maximum absorption (Table 1).
The mixtures wer stirred for 1 h at room temperature, transferred to 1.5 mL Eppendorf tubes, and centrifuged for 2 min. The clear solutions were filtered through filter papers, affording clear solutions, which were centrifuged again for 2 min. The top clear solutions were diluted by 1 x PBS buffer by 10-fold for the solubilities in water and 100-fold for the solubilities in 1 x PBS buffer. The new clear solutions were then measured individually using a UV-vis spectrophotometer and a UV 96-well microplate. The absorbance values were subtracted by that of a blank, 1 x PBS buffer. Concentrations and solubilities of the compounds were then calculated using their extinct coefficients and the corrected UV absorbances at the maximum absorptions (Table 1).

[3] = system: APOB secretion in the culture medium of hepatic cells; test: Secreted APOB ELISA in hepatic cells (K3 and JD4 iPSC-derived hepatocytes, human primary hepatocytes, HepG2); format: cell-based; details: 2 μg/mL, 24 hours; compared to DMSO-treated cells
Method: A. Human-induced pluripotent stem cells from a health donor (K3) and HoFH patient (JD4) were differentiated into hepatocytes via a defined protocol. Two different iPSC-derived Hepatocytes along with human primary hepatocytes and HepG2 cells were treated with 2 μg/mL of DL-1 for 24 hours and secreted APOB level were determined via human-specific APOB ELISA and were compared to DMSO-treated cells. […] Data shown as mean±SEM of triplicates (n=3); * p<0.05, *** P<0.001.
Human iPSCs were generated previously and have been described elsewhere (Si-Tayeb, 2010; Cayo et al., 2012). […]
Human APOB level was determined via a commercial sandwich ELISA (3715-1H-6; Mabtech), and the signal was detected using the HRP-TMB system. The concentration of APOB was determined using a standard curve with four parameters logistic regression model. Human APOA level was determined via a commercial sandwich ELISA (3710-1H-6; Mabtech) following manufacture instruction. Human albumin levels in cell culture supernatants were measured by commercial ELISA (E88-129; Bethyl Laboratories) following manufactural instructions.

Sc1nc(S)nc(Nc2ccc(Nc3ccccc3)cc2)n1 (racemic) [DL-1, 6-{[4-(phenylamino)phenyl]amino}-1,3,5-triazine-2,4-dithiol]
total cholesterol level in culture medium [1]: reduced total cholesterol level
Solubility in 1.0 ml PBS buffer ([2]; 1 × PBS buffer): 25 µg
Solubility in 1.0 ml water ([2]; water): 0.37 µg
secreted APOB level [3]: reduces APOB secretion
